Measured values from patent publication US11458203B2, “Pharmaceutical compositions comprising caffeic acid chelates” (Arizona Board of Regents, on behald of Arizona State …, priority 2017, dated 2022).
Like-named read-outs stand apart in the source and are kept apart here.

Columns and labels:
HSV1 = HSV1 plaque formation assay in Vero cells; format: cell-based; settings: for IC50: read-out: HSV1 IC50; for antiviral activity of the substance by itself (in words): component alone, not combined
HSV2 = HSV2 plaque formation assay in Vero cells; format: cell-based; settings: FIG. 6
Procedure: The antiviral assays were conducted as follows. For HSV1 and HSV2, Vero cells were grown in Dulbecco's minimal essential media containing 10% heat inactivated fetal bovine serum and antibiotic/antimycotic (ThermoFisher) in a 37° C., 5% CO2 incubator. Cells were seeded in standard 6-well tissue culture dishes. HSV1 virus was diluted to 100 plaque forming units/100 μL complete media. The virus samples were treated for 15 minutes with the indicated concentrations of the test compound/material. These treated viral samples were used to infect the confluent Vero cell monolayers. Cells were infected for 1 hour at 37° C. with occasional rocking. After 1 hour, 2 mLs of complete media was added to each well. The test compound was added to the media at the indicated concentration. The dishes were placed in the incubator for 3 days. After 3 days, the media was removed and the cells stained with 0.5% crystal violet. The number of plaques present were counted by hand and graphed as a percent relative to untreated samples.

VSV-Ebola pseudotype = format: cell-based, VSV-Ebola pseudotype (Zaire Ebola virus glycoprotein)
[1] = system: vaccinia virus (Copenhagen strain); format: cell-based; settings: FIG. 6
[2] = system: vesicular stomatitis virus (VSV); format: cell-based; settings: FIG. 6
Zika virus = format: cell-based; settings: at the concentrations tested
Rhinovirus 14 = format: cell-based
reovirus type 3 = format: cell-based
Vero cells = settings: African green monkey, 24 h, 27000 μM
[3] = test compound paired with Fe^3+, FIG. 7 and FIG. 8
[4] = Human alphaherpesvirus 1, Vero, test compound paired with Fe^3+, single dose-response trial, minimum three concentrations, FIG. 7 and FIG. 8

Q: `O=C(O)C=Cc1ccc(O)cc1O` [2,4-dihydroxycinnamic acid] was tested. Which “anti-HSV1 activity (in words)” value (HSV1; [3]) did it give?
A: The value was “inactivity”.

Q: For `O=C(O)c1ccc(O)c(O)c1` [3,4-dihydroxybenzoic acid], which “anti-HSV1 activity (in words)” value (HSV1; [3]) is on record?
A: Its value is “low activity”.

Q: With `O=C(O)Cc1ccc(O)c(O)c1` [3,4-dihydroxylphenylacetic acid] as the compound, how does the IC50 (HSV1; [4]) read?
A: The IC50 was 101 µM.

Q: Which IC50 (HSV1; Human alphaherpesvirus 1, Vero) does the source give for `O=C(O)C(O)Cc1ccc(O)c(O)c1` (stereo not drawn) [Danshensu, 3-(3,4-dihydroxyphenyl)-2-hydroxypropanoic acid] here?
A: The IC50 was 47.1 µM.

Q: What does the source list for `CC(Cc1ccc(O)c(O)c1)C(C)Cc1ccc(O)c(O)c1` (stereo not drawn) [Nordihydroguaiaretic acid]?
A: anti-HSV1 activity at highest concentration tested (HSV1; combined with iron(III), at 330 μM, FIG. 8): no activity; anti-HSV1 activity (in words) (HSV1; [3]): low activity; anti-HSV1 activity (in words) (HSV1; test compound paired with Fe^3+, FIG. 7 and FIG. 8, listed as nordihydroguaiaretic acid): no anti-HSV1 activity

Q: How did the “anti-HSV1 activity (in words)” value (HSV1; [3]) turn out when `O=S(=O)(O)c1cc(O)c(O)c(S(=O)(=O)O)c1` [Tiron] was run?
A: The value was “low activity”.

Q: How did the “activity relative to the caffeic acid and iron chelates” value (HSV1; positive control, FIG. 1 trial) turn out when `Nc1nc2c(ncn2COCCO)c(=O)[nH]1` [acyclovir] was run?
A: Its value is “about 20 fold”.

Q: How did the EC50 (HSV1; Human alphaherpesvirus 1, Vero, FIG. 1, inorganic ions added at half molar ratio to caffeic acid (2:1 organic:inorganic), caffeic acid alone = average of two separate tests, read-out: HSV1 EC50 (inhibition of plaque formation)) turn out when `O=C(O)C=Cc1ccc(O)c(O)c1` [caffeic acid, 3,4-dihydroxycinnamic acid] was run?
A: Its EC50 is 18600 µM.

Q: And the IC50 (HSV1; [4])?
A: Its IC50 is 66.7 µM.

Q: What about the “antiviral activity of the substance by itself (in words)” value (shortened to “antiviral activity of the substance”) (HSV1) of the same compound?
A: The value was “weak antiviral properties”.

Q: And the “antiviral activity of the substance” value (HSV1; listed as Caffeic acid)?
A: Its value is “minimal effect”.

Q: What about the “effect on HSV2 (in words)” value (HSV2) of the same compound?
A: The value was “minimal effect”.

Q: And the “effect on VSV-Ebola pseudotype (in words)” value (VSV-Ebola pseudotype)?
A: Its value is “minimal effect”.

Q: And the “effect on vaccinia virus (in words)” value [1]?
A: Its value is “minimal effect”.

Q: What about the “effect on wild type VSV (in words)” value [2] of the same compound?
A: Its value is “minimal effect”.

Q: And the “effect on Zika virus (in words)” value (Zika virus)?
A: The value was “unaffected”.

Q: What about the “effect on Rhinovirus (in words)” value (Rhinovirus 14) of the same compound?
A: Its value is “unaffected”.

Q: What about the “effect on Reovirus (in words)” value (reovirus type 3) of the same compound?
A: The value was “unaffected”.

Q: And the cell viability (Vero cells)?
A: The cell viability was ≥ 90%.

Q: Which “anti-HSV1 activity (in words)” value (HSV1; [3]) does the source give for `Oc1ccccc1O` [catechol] here?
A: The value was “low activity”.

Q: With `NCCc1ccc(O)c(O)c1` [dopamine] as the compound, how does the “anti-HSV1 activity (in words)” value (HSV1; [3]) read?
A: Its value is “low activity”.

Q: How did the “antiviral activity of the substance” value (HSV1) turn out when `[Cl][Fe]([Cl])[Cl]` [iron(III), iron(III) chloride] was run?
A: The value was “no antiviral properties”.

Q: And the “antiviral activity of the substance” value (HSV1; listed as Iron(III))?
A: Its value is “no detectable antiviral activity”.

Q: How did the IC50 (HSV1; [4]) turn out when `O=C(/C=C/c1ccc(O)c(O)c1)O[C@H](Cc1ccc(O)c(O)c1)C(=O)O` [rosmarinic acid] was run?
A: The IC50 was 101 µM.

Q: How did the “anti-HSV1 activity compared with caffeic acid alone” value (HSV1; FIG. 1, ion at half molar ratio to caffeic acid) turn out when caffeic acid+sulfate was run?
A: The value was “no increased activity over caffeic acid alone”.

Q: For chicoric acid, which “anti-HSV1 activity relative to caffeic acid, molar basis” value (HSV1; paired with Fe^3+, FIG. 8) is on record?
A: Its value is “a little over triple that of caffeic acid”.

Q: What about the IC50 (HSV1; test compound paired with Fe^3+, single dose-response trial, minimum three concentrations, FIG. 7 and FIG. 8) of the same compound?
A: Its IC50 is 17.4 µM.

Q: How did the “inhibition of plaque formation” value (HSV1; inorganic ions in the absence of caffeic acid, 83 μM (highest dose tested), FIG. 2 and FIG. 3) turn out when copper(II) was run?
A: The value was 38%.
